Experimental data from PubChem BioAssay (NCI).
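Cells were grown in 96-well plates and exposed to each compound for 48 hours at five concentrations; endpoints were interpolated linearly between bracketing concentrations, or set to the highest concentration if not reached. GI50: concentration for 50% inhibition of growth. TGI is the concentration that stops growth completely.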

Columns and labels:
Experiment in all cases: growth of human tumour cells (NCI), 48 h
786-0 renal = tested on: 786-0 renal
A498 renal = tested on: A498 renal
A549 NSCLC = tested on: A549 NSCLC
ACHN renal = tested on: ACHN renal
BT-549 breast = tested on: BT-549 breast
CAKI-1 renal = tested on: CAKI-1 renal
CCRF-CEM leukemia = tested on: CCRF-CEM leukemia
COLO 205 colon = tested on: COLO 205 colon
DU-145 prostate = tested on: DU-145 prostate
HCC-2998 colon = tested on: HCC-2998 colon
HCT-116 colon = tested on: HCT-116 colon
HCT-15 colon = tested on: HCT-15 colon
HL-60(TB) leukemia = tested on: HL-60(TB) leukemia
HOP-62 NSCLC = tested on: HOP-62 NSCLC
HOP-92 NSCLC = tested on: HOP-92 NSCLC
HS 578T breast = tested on: HS 578T breast
HT29 colon = tested on: HT29 colon
IGROV1 ovarian = tested on: IGROV1 ovarian
K-562 leukemia = tested on: K-562 leukemia
KM12 colon = tested on: KM12 colon
LOX IMVI melanoma = tested on: LOX IMVI melanoma
M14 melanoma = tested on: M14 melanoma
MALME-3M melanoma = tested on: MALME-3M melanoma
MCF7 breast = tested on: MCF7 breast
MDA-MB-231 breast = tested on: MDA-MB-231 breast
MDA-MB-435 = tested on: MDA-MB-435
MOLT-4 leukemia = tested on: MOLT-4 leukemia
NCI-H23 lung = tested on: NCI-H23 lung
NCI-H460 lung = tested on: NCI-H460 lung
NCI-H522 lung = tested on: NCI-H522 lung
NCI/ADR-RES ovarian = tested on: NCI/ADR-RES ovarian
OVCAR-3 ovarian = tested on: OVCAR-3 ovarian
OVCAR-5 ovarian = tested on: OVCAR-5 ovarian
OVCAR-8 ovarian = tested on: OVCAR-8 ovarian
PC-3 prostate = tested on: PC-3 prostate
RXF 393 renal = tested on: RXF 393 renal
SF-268 CNS = tested on: SF-268 CNS
SF-295 CNS = tested on: SF-295 CNS
SF-539 CNS = tested on: SF-539 CNS
SK-MEL-2 melanoma = tested on: SK-MEL-2 melanoma
SK-MEL-28 melanoma = tested on: SK-MEL-28 melanoma
SK-MEL-5 melanoma = tested on: SK-MEL-5 melanoma
SK-OV-3 ovarian = tested on: SK-OV-3 ovarian
SN12C renal = tested on: SN12C renal
SNB-19 CNS = tested on: SNB-19 CNS
SNB-75 CNS = tested on: SNB-75 CNS
SR leukemia = tested on: SR leukemia
SW-620 colon = tested on: SW-620 colon
T-47D breast = tested on: T-47D breast
TK-10 renal = tested on: TK-10 renal
U251 CNS = tested on: U251 CNS
UACC-257 melanoma = tested on: UACC-257 melanoma
UACC-62 melanoma = tested on: UACC-62 melanoma
UO-31 renal = tested on: UO-31 renal

## Clc1ccc2ncc(-c3cccc(NC4CNC4)n3)n2c1
786-0 renal
  GI50: 7.96 µM
  TGI: > 100 µM
A498 renal
  GI50: 5.7 µM
  TGI: 19.7 µM
A549 NSCLC
  GI50: 4.71 µM
  TGI: > 100 µM
ACHN renal
  GI50: 1.91 µM
  TGI: > 100 µM
BT-549 breast
  GI50: 10.5 µM
  TGI: 31.8 µM
CAKI-1 renal
  GI50: 4.51 µM
  TGI: 84.1 µM
CCRF-CEM leukemia
  GI50: 3.62 µM
  TGI: 72.7 µM
COLO 205 colon
  GI50: 2.11 µM
  TGI: 7.31 µM
DU-145 prostate
  GI50: 4.58 µM
  TGI: > 100 µM
HCC-2998 colon
  GI50: 12.9 µM
  TGI: 68.2 µM
HCT-116 colon
  GI50: 3.7 µM
  TGI: > 100 µM
HCT-15 colon
  GI50: 5.39 µM
  TGI: > 100 µM
HL-60(TB) leukemia
  GI50: 4.54 µM
  TGI: 42.2 µM
HOP-62 NSCLC
  GI50: 5.98 µM
  TGI: 65.4 µM
HOP-92 NSCLC
  GI50: 20.5 µM
  TGI: 67.7 µM
HS 578T breast
  GI50: 3.91 µM
  TGI: 20.6 µM
HT29 colon
  GI50: 3.21 µM
  TGI: > 100 µM
IGROV1 ovarian
  GI50: 4.57 µM
  TGI: 44.6 µM
K-562 leukemia
  GI50: 8.9 µM
  TGI: > 100 µM
KM12 colon
  GI50: 0.686 µM
  TGI: > 100 µM
LOX IMVI melanoma
  GI50: 2.47 µM
  TGI: 13.8 µM
M14 melanoma
  GI50: 8.87 µM
  TGI: 25.5 µM
MALME-3M melanoma
  GI50: 8.59 µM
  TGI: 26.4 µM
MCF7 breast
  GI50: 4.64 µM
  TGI: 52.3 µM
MDA-MB-231 breast
  GI50: 6.48 µM
  TGI: 75.1 µM
MDA-MB-435
  GI50: 4.76 µM
  TGI: 21.5 µM
MOLT-4 leukemia
  GI50: 5.03 µM
  TGI: > 100 µM
NCI-H23 lung
  GI50: 7.66 µM
  TGI: 36.3 µM
NCI-H460 lung
  GI50: 2.96 µM
  TGI: 13.5 µM
NCI-H522 lung
  GI50: 6.13 µM
  TGI: 27.9 µM
NCI/ADR-RES ovarian
  GI50: 33.5 µM
  TGI: > 100 µM
OVCAR-3 ovarian
  GI50: 18.9 µM
  TGI: > 100 µM
OVCAR-5 ovarian
  GI50: 6.45 µM
  TGI: > 100 µM
OVCAR-8 ovarian
  GI50: 3.92 µM
  TGI: 84.3 µM
PC-3 prostate
  GI50: 4.55 µM
  TGI: 80.9 µM
RXF 393 renal
  GI50: 1.45 µM
  TGI: 11.6 µM
SF-268 CNS
  GI50: 8.7 µM
  TGI: 33 µM
SF-295 CNS
  GI50: 3.34 µM
  TGI: 20.2 µM
SF-539 CNS
  GI50: 2.92 µM
  TGI: 17.3 µM
SK-MEL-2 melanoma
  GI50: 13.5 µM
  TGI: 37.9 µM
SK-MEL-28 melanoma
  GI50: 13 µM
  TGI: > 100 µM
SK-MEL-5 melanoma
  GI50: 16.1 µM
  TGI: 76.1 µM
SK-OV-3 ovarian
  GI50: 9.24 µM
  TGI: > 100 µM
SN12C renal
  GI50: 1.58 µM
  TGI: > 100 µM
SNB-19 CNS
  GI50: 24.1 µM
  TGI: > 100 µM
SNB-75 CNS
  GI50: 10.6 µM
  TGI: 27.8 µM
SR leukemia
  GI50: 1.97 µM
  TGI: > 100 µM
SW-620 colon
  GI50: 2.92 µM
  TGI: 15.8 µM
T-47D breast
  GI50: 20.2 µM
  TGI: 73.8 µM
TK-10 renal
  GI50: 8.03 µM
  TGI: 93.3 µM
U251 CNS
  GI50: 6.85 µM
  TGI: 48.7 µM
UACC-257 melanoma
  GI50: 11.5 µM
  TGI: 51.4 µM
UACC-62 melanoma
  GI50: 10.2 µM
  TGI: 27.3 µM
UO-31 renal
  GI50: 5.12 µM
  TGI: 88.5 µM
